Data reported in patent US5750362A, “Methods for identifying substances with a potential herbicidal or growth-regulating action by means of plant transporter proteins, the use of the transporter proteins, and substances with a herbicidal and growth-regulating action” (BASF Aktiengesellschaft, priority 1993, dated 1998).

Experiments:
[1] = target: T1, sucrose transporter S21 (SoSUT1) (Spinacia oleracea, UniProt Q03411); assay: [14C]-sucrose uptake by yeast strain SUSY7 expressing the spinach sucrose transporter; format: cell-based; conditions: [14C]-sucrose uptake, pH 3.8; tested substance 0.1 mM
T1 construct: expressed in transfected cells; host or cells: Saccharomyces cerevisiae SUSY7
T1 sequence (Q03411 1-525): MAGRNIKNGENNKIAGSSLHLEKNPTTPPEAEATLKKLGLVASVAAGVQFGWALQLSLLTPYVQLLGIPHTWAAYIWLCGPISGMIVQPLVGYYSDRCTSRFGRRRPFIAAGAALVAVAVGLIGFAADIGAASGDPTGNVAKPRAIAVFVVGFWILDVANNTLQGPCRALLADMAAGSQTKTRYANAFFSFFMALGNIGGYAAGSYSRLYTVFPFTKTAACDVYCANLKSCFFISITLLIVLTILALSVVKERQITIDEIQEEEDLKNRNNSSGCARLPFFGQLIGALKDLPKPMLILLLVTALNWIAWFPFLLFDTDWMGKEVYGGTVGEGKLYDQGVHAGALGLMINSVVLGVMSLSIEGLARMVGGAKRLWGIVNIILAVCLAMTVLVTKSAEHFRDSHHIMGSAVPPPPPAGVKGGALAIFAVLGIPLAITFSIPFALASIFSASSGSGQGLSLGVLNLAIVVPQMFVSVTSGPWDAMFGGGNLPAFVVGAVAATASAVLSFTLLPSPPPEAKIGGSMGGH
Procedure: Yeast cells of the strain SUSY7 (Riesmeier et al., 1992, EMBO J. 11: 4705-4713) are used to identify substances which have an inhibitory effect on sucrose transporters from spinach. Cells of this strain are transformed with a cDNA sequence which codes for the sucrose transporter S21 (SoSUT1) from spinach and which ensures expression of a functional transporter in the cells. The yeast cells are cultured in minimal medium (SD+2% (w/v) sucrose, pH 3.8) at 28° C. and harvested in the logarithmic phase (OD600 =0.6). The cells are spun down at 4000 rpm for 10 minutes and washed twice with SD medium. A cell concentration of c=50 g/l in SD medium is adjusted according to the wet weight of the cells, and 200 μl aliquot fractions are taken. Before the actual reaction, the cells are incubated in 10 mM glucose for 5 min and adjusted to pH 3.8 with MES buffer. The reaction is started by adding 200 μl of a 0.2 mmol/l [14C]-sucrose solution (3 mCi/mmol) in SD medium (pH 3.8). After 20, 60, 120, 180 and 240 seconds, 70 μl portions of the suspension are removed and pipetted into 4 ml of ice-cold water in order to stop the reaction. The cells are filtered off on glass fiber filters and washed twice with ice-cold water. The radioactivity on the filters is subsequently determined in a liquid scintillation counter. The substances to be tested are added 30 seconds before addition of the sucrose. The uptake of radiolabeled sucrose without addition of a potential inhibitor is determined as one control. Cells of the strain SUSY7 which are not transformed with cDNA sequences coding for a sucrose transporter from spinach are employed as further control.
The various tested substances, their concentration and the activity of the transporter, shown as percentage activity of the control in which no potential inhibitors were added, are indicated. Substances which specifically show an inhibitory effect on the sucrose transporter S21 (SoSUT1), are tested for their herbicidal and growth-regulating effect on whole plants.

[2] = target: T2, sucrose transporter P62 (StSUT1) (Solanum tuberosum, UniProt Q43653); assay: [14C]-sucrose uptake by yeast strain SUSY-7-P62 (StSUT1) expressing the potato sucrose transporter; format: cell-based; conditions: [14C]-sucrose uptake, pH 3.8; tested substance 0.1 mM
T2 construct: whole-cell [14C]-sucrose uptake; no tag or borders given
T2 sequence (Q43653 1-516): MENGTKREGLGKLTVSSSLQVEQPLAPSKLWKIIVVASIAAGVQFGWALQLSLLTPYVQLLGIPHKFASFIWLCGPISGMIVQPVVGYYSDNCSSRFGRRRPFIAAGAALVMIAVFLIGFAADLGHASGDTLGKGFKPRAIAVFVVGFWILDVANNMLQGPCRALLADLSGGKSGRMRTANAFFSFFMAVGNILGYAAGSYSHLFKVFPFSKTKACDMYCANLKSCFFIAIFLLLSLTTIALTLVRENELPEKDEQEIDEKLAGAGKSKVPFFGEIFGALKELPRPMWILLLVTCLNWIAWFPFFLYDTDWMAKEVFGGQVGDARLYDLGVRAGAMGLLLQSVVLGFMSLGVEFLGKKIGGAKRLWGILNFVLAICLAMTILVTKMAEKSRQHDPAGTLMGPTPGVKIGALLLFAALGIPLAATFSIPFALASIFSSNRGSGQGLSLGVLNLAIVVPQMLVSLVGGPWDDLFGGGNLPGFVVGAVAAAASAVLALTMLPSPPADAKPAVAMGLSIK
Excerpt: Yeast cells of the strain SUSY7 (Riesmeier et al., 1992, EMBO J. 11: 4705-4713) are used to identify substances which have an inhibitory effect on sucrose transporters from potato. Cells of this strain are transformed with a cDNA sequence which codes for the sucrose transporter P62 (StSUT1) from potato (WO 94/00574, Riesmeier et al., 1993, Plant Cell 5:1591-1598) and which ensures expression of a functional transporter in the cells. The resulting yeast strain was called SUSY-7-P62 (StSUT1). The yeast cells are cultured in minimal medium (SD +2% (w/v) sucrose, pH 3.8) at 28° C. and harvested in the logarithmic phase (OD600 =0.6). The cells are spun down at 4000 rpm for 10 minutes and washed twice with SD medium. A cell concentration of c=50 g/l in SD medium is adjusted according to the wet weight of the cells, and 200 Al aliquot fractions are taken. Before the actual reaction, the cells are incubated in 10 mM glucose for 5 min and adjusted to pH 3.8 with MES buffer. The reaction is started by adding 200 Al of a 0.2 mmol/l [14C]-sucrose solution (3 mCi/mmol) in SD medium (pH 3.8). After 20, 60, 120, 180 and 240 seconds, 70 μl portions of the suspension are removed and pipetted into 4 ml of ice-cold water in order to stop the reaction. The cells are filtered off on glass fiber filters and washed twice with ice-cold water. The radioactivity on the filters is subsequently determined in a liquid scintillation counter. The substances to be tested are added 30 seconds before addition of the sucrose. The uptake of radiolabeled sucrose without addition of a potential inhibitor is determined as one control. Cells of the strain SUSY7 which are not transformed with cDNA sequences coding for a sucrose transporter from potato are employed as further control.
The various tested substances, their concentration and the activity of the transporter, shown as percentage activity of the control in which no potential inhibitors were added, are indicated.

[3] = test system: plants; assay: Herbicidal activity on plants; format: in vivo; conditions: whole plants; result in words
[4] = test system: sucrose transporters; conditions: Bush, 1989, Plant Physiol. 89: 1318-1323; result in words; cited from earlier work
[5] = target: T3, ammonium transporter AMT1 (Arabidopsis thaliana, UniProt P54144); assay: Substrate specificity, Km and Ki determination of the ammonium transporter in yeast strain 26972c; format: cell-based; conditions: inhibition of methylamine transport by various concentrations of ammonium; read-out: Ki (inhibitor constant)
T3 construct: expressed in transfected cells; host or cells: Saccharomyces cerevisiae 26972c (mutations in MEP1 and MEP2)
T3 sequence (P54144 1-501): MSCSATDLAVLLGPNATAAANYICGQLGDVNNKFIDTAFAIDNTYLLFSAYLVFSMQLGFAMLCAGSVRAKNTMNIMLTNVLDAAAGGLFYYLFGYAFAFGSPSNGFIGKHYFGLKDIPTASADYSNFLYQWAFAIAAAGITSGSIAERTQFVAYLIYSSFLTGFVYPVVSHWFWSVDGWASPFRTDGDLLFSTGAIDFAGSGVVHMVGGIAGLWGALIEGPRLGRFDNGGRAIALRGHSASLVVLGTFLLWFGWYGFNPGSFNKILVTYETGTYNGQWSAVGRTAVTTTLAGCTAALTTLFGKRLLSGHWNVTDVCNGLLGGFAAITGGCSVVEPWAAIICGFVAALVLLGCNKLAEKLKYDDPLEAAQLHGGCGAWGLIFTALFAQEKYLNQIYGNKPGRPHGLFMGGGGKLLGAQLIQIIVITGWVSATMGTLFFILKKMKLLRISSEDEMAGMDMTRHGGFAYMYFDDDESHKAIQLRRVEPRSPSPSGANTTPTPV
Procedure: The investigations of the substrate specificity and the Km determinations are carried out with the yeast strain .music-natural. 26972c (Dubois & Grenson, Mol. Gen. Genet. 175: 67-76, 1979) which expresses the plant ammonium transporter AMT1. The method for this is as in Example 6, except for the fact that the methylamine substrate concentration is varied. […] To determine the affinity of the transport system for ammonium, the inhibition of methylamine transport by various concentration [sic] of ammonium is determined (inhibitor constant, Ki)

[6] = substrate: OC[C@H]1O[C@@](CO)(O[C@H]2O[C@H](CO)[C@@H](O)[C@H](O)[C@H]2O)[C@@H](O)[C@@H]1O; assay: Substrate specificity and Km determination of the sucrose transporter in yeast strain SUSY7-pP62; format: cell-based, Solanum tuberosum; conditions: other: substrate of the sucrose transporter; substrate concentration varied, no inhibitors
Procedure: (§1) The investigations of the substrate specificity and the Km determination are carried out in the yeast strain SUSY7-pP62 (StSUT1) (Riesmeier et al., 1993, Plant Cell 5:1591-1598), which expresses the sucrose transporter from Solanum tuberosum. This entails carrying out the method of Example 3 apart from the fact that the substrate concentration is changed and no potential inhibitors are added. […]

[7] = substrate: OC[C@H]1O[C@H](O[C@H]2[C@H](O)[C@@H](O)[C@H](O)O[C@@H]2CO)[C@H](O)[C@@H](O)[C@@H]1O; assay: as above; format: cell-based, Solanum tuberosum; conditions: other: substrate of the sucrose transporter; substrate concentration varied, no inhibitors
Procedure: as §1

O=S(=O)(O)c1cc[c]([Hg][Cl])cc1 [PCMBS]
Activity relative to the control [%] [1]: 21%
Activity relative to the control [%] [2]: 20%
Herbicidal activity on plants [3]: herbicidal activity on plants
Inhibition of sucrose transport [4]: highly effective transport inhibitors

N [ammonium]
Ki [5]: < 10 µM

B1: sucrose transporter P62 (StSUT1) (Solanum tuberosum) (protein)
chain: MENGTKREGLGKLTVSSSLQVEQPLAPSKLWKIIVVASIAAGVQFGWALQLSLLTPYVQLLGIPHKFASFIWLCGPISGMIVQPVVGYYSDNCSSRFGRRRPFIAAGAALVMIAVFLIGFAADLGHASGDTLGKGFKPRAIAVFVVGFWILDVANNMLQGPCRALLADLSGGKSGRMRTANAFFSFFMAVGNILGYAAGSYSHLFKVFPFSKTKACDMYCANLKSCFFIAIFLLLSLTTIALTLVRENELPEKDEQEIDEKLAGAGKSKVPFFGEIFGALKELPRPMWILLLVTCLNWIAWFPFFLYDTDWMAKEVFGGQVGDARLYDLGVRAGAMGLLLQSVVLGFMSLGVEFLGKKIGGAKRLWGILNFVLAICLAMTILVTKMAEKSRQHDPAGTLMGPTPGVKIGALLLFAALGIPLAATFSIPFALASIFSSNRGSGQGLSLGVLNLAIVVPQMLVSLVGGPWDDLFGGGNLPGFVVGAVAAAASAVLALTMLPSPPADAKPAVAMGLSIK
notes: whole-cell [14C]-sucrose uptake; no tag or borders given
Km [6]: 1 mM
Km [7]: 10 mM
